{"source": "ChEMBL document CHEMBL3885881", "about": "“DrugMatrix”", "organism": "Rattus norvegicus", "test": "DrugMatrix - Regimen: Daily Repeat", "assay_type": "toxicity, organism-based, Sprague-Dawley", "design": "regimen Daily Repeat, gender Male, age 6-8 weeks", "conditions": "in vivo, ip, route intraperitoneal, vehicle 100 % SALINE; for CREATININE / GLUCOSE / LACTATE DEHYDROGENASE / LIPASE / PHOSPHORUS / POTASSIUM / SODIUM / TOTAL BILIRUBIN / TOTAL PROTEIN / URIC ACID / ALANINE AMINOTRANSFERASE / ALBUMIN / ALKALINE PHOSPHATASE / ASPARTATE AMINOTRANSFERASE / BLOOD UREA NITROGEN / CARBON DIOXIDE / CHLORIDE / CHOLESTEROL / CREATINE PHOSPHOKINASE: tissue Plasma; for ABSOLUTE BASOPHIL / ABSOLUTE EOSINOPHIL / ABSOLUTE LYMPHOCYTE / ABSOLUTE MONOCYTE / ABSOLUTE SEGMENTED NEUTROPHIL / BASOPHIL / EOSINOPHIL / ERYTHROCYTE COUNT / HEMATOCRIT / HEMOGLOBIN / LEUKOCYTE COUNT / LYMPHOCYTE / MEAN CORPUSCULAR HEMOGLOBIN / MEAN CORPUSCULAR HEMOGLOBIN CONCENTRATION / MEAN CORPUSCULAR VOLUME / MONOCYTE / NEUTROPHIL / NUCLEATED RED BLOOD CELLS / PLATELET COUNT: tissue Blood", "key": {"[1]": {"conditions": "25 mg/kg, […], dose level M1, time 7 day"}, "[2]": {"conditions": "32 mg/kg, 72 h, dose level High, time 3 day"}, "[3]": {"conditions": "32 mg/kg, 120 h, dose level High, time 5 day"}}}
{"smiles": "C=CCO", "note": "[ALLYL ALCOHOL]", "values": [{"measurement": "CREATININE", "setting": "[1]", "value": 0.28, "unit": "mg/dL"}, {"measurement": "GLUCOSE", "setting": "[1]", "value": 136.67, "unit": "mg/dL"}, {"measurement": "LACTATE DEHYDROGENASE", "setting": "[1]", "value": 97, "unit": "u/L"}, {"measurement": "LIPASE", "setting": "[1]", "value": 10.5, "unit": "u/L"}, {"measurement": "PHOSPHORUS", "setting": "[1]", "value": 9.85, "unit": "mg/dL"}, {"measurement": "POTASSIUM", "setting": "[1]", "value": 5.63, "unit": "MEQ/L"}, {"measurement": "SODIUM", "setting": "[1]", "value": 144.45, "unit": "MEQ/L"}, {"measurement": "TOTAL BILIRUBIN", "setting": "[1]", "value": 0.1, "unit": "mg/dL"}, {"measurement": "TOTAL PROTEIN", "setting": "[1]", "value": 6.35, "unit": "G/DL"}, {"measurement": "URIC ACID", "setting": "[1]", "value": 0.85, "unit": "mg/dL"}, {"measurement": "ABSOLUTE BASOPHIL", "setting": "[2]", "value": 0, "unit": "CELLS/uL"}, {"measurement": "ABSOLUTE EOSINOPHIL", "setting": "[2]", "value": 16, "unit": "CELLS/uL"}, {"measurement": "ABSOLUTE LYMPHOCYTE", "setting": "[2]", "value": 7549.2, "unit": "CELLS/uL"}, {"measurement": "ABSOLUTE MONOCYTE", "setting": "[2]", "value": 147.6, "unit": "CELLS/uL"}, {"measurement": "ABSOLUTE SEGMENTED NEUTROPHIL", "setting": "[2]", "value": 1267.2, "unit": "CELLS/uL"}, {"measurement": "BASOPHIL", "setting": "[2]", "value": 0, "unit": "%"}, {"measurement": "EOSINOPHIL", "setting": "[2]", "value": 0.2, "unit": "%"}, {"measurement": "ERYTHROCYTE COUNT", "setting": "[2]", "value": 5.74, "unit": "x10E6/uL"}, {"measurement": "HEMATOCRIT", "setting": "[2]", "value": 34.96, "unit": "%"}, {"measurement": "HEMOGLOBIN", "setting": "[2]", "value": 13.16, "unit": "G/DL"}, {"measurement": "LEUKOCYTE COUNT", "setting": "[2]", "value": 8.98, "unit": "x10E3/uL"}, {"measurement": "LYMPHOCYTE", "setting": "[2]", "value": 84, "unit": "%"}, {"measurement": "MEAN CORPUSCULAR HEMOGLOBIN", "setting": "[2]", "value": 22.98, "unit": "pg"}, {"measurement": "MEAN CORPUSCULAR HEMOGLOBIN CONCENTRATION", "setting": "[2]", "value": 37.66, "unit": "G/DL"}, {"measurement": "MEAN CORPUSCULAR VOLUME", "setting": "[2]", "value": 61.06, "unit": "fL"}, {"measurement": "MONOCYTE", "setting": "[2]", "value": 1.6, "unit": "%"}, {"measurement": "NEUTROPHIL", "setting": "[2]", "value": 14.2, "unit": "%"}, {"measurement": "NUCLEATED RED BLOOD CELLS", "setting": "[2]", "value": "0 /100WBC"}, {"measurement": "PLATELET COUNT", "setting": "[2]", "value": 945, "unit": "x10E3/uL"}, {"measurement": "ALANINE AMINOTRANSFERASE", "setting": "[2]", "value": 456.4, "unit": "u/L"}, {"measurement": "ALBUMIN", "setting": "[2]", "value": 3.86, "unit": "G/DL"}, {"measurement": "ALKALINE PHOSPHATASE", "setting": "[2]", "value": 444.6, "unit": "u/L"}, {"measurement": "ASPARTATE AMINOTRANSFERASE", "setting": "[2]", "value": 939.2, "unit": "u/L"}, {"measurement": "BLOOD UREA NITROGEN", "setting": "[2]", "value": 15.6, "unit": "mg/dL"}, {"measurement": "CARBON DIOXIDE", "setting": "[2]", "value": 28.24, "unit": "mmol/L"}, {"measurement": "CHLORIDE", "setting": "[2]", "value": 98.33, "unit": "MEQ/L"}, {"measurement": "CHOLESTEROL", "setting": "[2]", "value": 70.6, "unit": "mg/dL"}, {"measurement": "CREATINE PHOSPHOKINASE", "setting": "[2]", "value": 527.8, "unit": "u/L"}, {"measurement": "CREATININE", "setting": "[2]", "value": 0.2, "unit": "mg/dL"}, {"measurement": "GLUCOSE", "setting": "[2]", "value": 138.2, "unit": "mg/dL"}, {"measurement": "LACTATE DEHYDROGENASE", "setting": "[2]", "value": 186.6, "unit": "u/L"}, {"measurement": "LIPASE", "setting": "[2]", "value": 9.25, "unit": "u/L"}, {"measurement": "PHOSPHORUS", "setting": "[2]", "value": 9.34, "unit": "mg/dL"}, {"measurement": "POTASSIUM", "setting": "[2]", "value": 5.07, "unit": "MEQ/L"}, {"measurement": "SODIUM", "setting": "[2]", "value": 143.03, "unit": "MEQ/L"}, {"measurement": "TOTAL BILIRUBIN", "setting": "[2]", "value": 0.2, "unit": "mg/dL"}, {"measurement": "TOTAL PROTEIN", "setting": "[2]", "value": 5.94, "unit": "G/DL"}, {"measurement": "URIC ACID", "setting": "[2]", "value": 0.58, "unit": "mg/dL"}, {"measurement": "ABSOLUTE BASOPHIL", "setting": "[3]", "value": 0, "unit": "CELLS/uL"}, {"measurement": "ABSOLUTE EOSINOPHIL", "setting": "[3]", "value": 0, "unit": "CELLS/uL"}, {"measurement": "ABSOLUTE LYMPHOCYTE", "setting": "[3]", "value": 8954.4, "unit": "CELLS/uL"}, {"measurement": "ABSOLUTE MONOCYTE", "setting": "[3]", "value": 236, "unit": "CELLS/uL"}, {"measurement": "ABSOLUTE SEGMENTED NEUTROPHIL", "setting": "[3]", "value": 1769.6, "unit": "CELLS/uL"}, {"measurement": "BASOPHIL", "setting": "[3]", "value": 0, "unit": "%"}, {"measurement": "EOSINOPHIL", "setting": "[3]", "value": 0, "unit": "%"}, {"measurement": "ERYTHROCYTE COUNT", "setting": "[3]", "value": 5.51, "unit": "x10E6/uL"}, {"measurement": "HEMATOCRIT", "setting": "[3]", "value": 33.82, "unit": "%"}, {"measurement": "HEMOGLOBIN", "setting": "[3]", "value": 12.86, "unit": "G/DL"}, {"measurement": "LEUKOCYTE COUNT", "setting": "[3]", "value": 10.96, "unit": "x10E3/uL"}, {"measurement": "LYMPHOCYTE", "setting": "[3]", "value": 81.4, "unit": "%"}, {"measurement": "MEAN CORPUSCULAR HEMOGLOBIN", "setting": "[3]", "value": 23.36, "unit": "pg"}, {"measurement": "MEAN CORPUSCULAR HEMOGLOBIN CONCENTRATION", "setting": "[3]", "value": 38.08, "unit": "G/DL"}, {"measurement": "MEAN CORPUSCULAR VOLUME", "setting": "[3]", "value": 61.42, "unit": "fL"}, {"measurement": "MONOCYTE", "setting": "[3]", "value": 2.2, "unit": "%"}, {"measurement": "NEUTROPHIL", "setting": "[3]", "value": 16.4, "unit": "%"}, {"measurement": "NUCLEATED RED BLOOD CELLS", "setting": "[3]", "value": "0 /100WBC"}, {"measurement": "PLATELET COUNT", "setting": "[3]", "value": 1673, "unit": "x10E3/uL"}, {"measurement": "ALANINE AMINOTRANSFERASE", "setting": "[3]", "value": 57.8, "unit": "u/L"}, {"measurement": "ALBUMIN", "setting": "[3]", "value": 4.32, "unit": "G/DL"}, {"measurement": "ALKALINE PHOSPHATASE", "setting": "[3]", "value": 372.6, "unit": "u/L"}, {"measurement": "ASPARTATE AMINOTRANSFERASE", "setting": "[3]", "value": 80.8, "unit": "u/L"}, {"measurement": "BLOOD UREA NITROGEN", "setting": "[3]", "value": 12.6, "unit": "mg/dL"}, {"measurement": "CARBON DIOXIDE", "setting": "[3]", "value": 32.4, "unit": "mmol/L"}, {"measurement": "CHLORIDE", "setting": "[3]", "value": 102, "unit": "MEQ/L"}, {"measurement": "CHOLESTEROL", "setting": "[3]", "value": 79.8, "unit": "mg/dL"}, {"measurement": "CREATINE PHOSPHOKINASE", "setting": "[3]", "value": 211.6, "unit": "u/L"}, {"measurement": "CREATININE", "setting": "[3]", "value": 0.16, "unit": "mg/dL"}, {"measurement": "GLUCOSE", "setting": "[3]", "value": 162.6, "unit": "mg/dL"}, {"measurement": "LACTATE DEHYDROGENASE", "setting": "[3]", "value": 154.6, "unit": "u/L"}, {"measurement": "LIPASE", "setting": "[3]", "value": 9.6, "unit": "u/L"}, {"measurement": "PHOSPHORUS", "setting": "[3]", "value": 9.92, "unit": "mg/dL"}, {"measurement": "POTASSIUM", "setting": "[3]", "value": 5.73, "unit": "MEQ/L"}, {"measurement": "SODIUM", "setting": "[3]", "value": 143.6, "unit": "MEQ/L"}, {"measurement": "TOTAL BILIRUBIN", "setting": "[3]", "value": 0.22, "unit": "mg/dL"}, {"measurement": "TOTAL PROTEIN", "setting": "[3]", "value": 6.56, "unit": "G/DL"}, {"measurement": "URIC ACID", "setting": "[3]", "value": 0.94, "unit": "mg/dL"}]}
